In brackets after ≈: the same amount, converted by molar mass. Like-named read-outs stand apart in the source and are kept apart here.
Tests used:
Assay type in all cases: cell-based
[1] = system: Escherichia coli; assay: Broth microdilution MIC (Example 6); details: Escherichia coli, read-out: MIC
How it was run: (§1)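 Activity was measured by CLSI broth microdilution using 2-fold serial dilutions and an inoculum of about 5×10^5 CFU/mL. Plates were incubated at 35 °C for 16 to 20 hr. The MIC is the lowest drug concentration that prevented visible growth.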

[2] = system: Klebsiella pneumoniae; assay: Broth microdilution MIC (Example 6); details: Klebsiella pneumoniae, read-out: MIC
How it was run: as §1

[3] = system: Pseudomonas aeruginosa; assay: Broth microdilution MIC (Example 6); details: Pseudomonas aeruginosa, read-out: MIC
How it was run: as §1

[4] = system: Acinetobacter baumannii; assay: Broth microdilution MIC (Example 6); details: Acinetobacter baumannii, read-out: MIC
How it was run: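 CLSI broth microdilution in cation-adjusted Mueller Hinton broth, test agents 0.06-64 μg/mL from DMSO stocks, inoculum approx. 5×10^5 CFU/mL. Incubation 35° C for 16–20 hr; MIC taken as lowest concentration inhibiting visible growth.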

[5] = system: relevant ATCC QC organisms; assay: Broth microdilution MIC, QC (Example 6); details: read-out: MIC
How it was run: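 QC strains were tested per CLSI broth microdilution in cation-adjusted Mueller Hinton broth, with Ca2+ supplemented for daptomycin, at about 5×10^5 CFU/mL. Incubation was at 35° C for 16–20 hr, or 24 hr for vancomycin against S. aureus. The MIC was the lowest concentration inhibiting visible growth.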

[6] = ATCC35218, E. coli ATCC 35218, ESBL
[7] = ATCCBAA2471, E. coli ATCC BAA-2471, NDM
[8] = ATCCBAA1705, K. pneumoniae ATCC BAA-1705, ESBL/KPC
[9] = K. pneumoniae CDC 113, ESBL/KPC
[10] = K. pneumoniae CDC 115, ESBL/KPC
[11] = K. pneumoniae CDC 120, ESBL/KPC
[12] = K. pneumoniae CDC 126, ESBL/KPC
[13] = K. pneumoniae CDC 129, ESBL/KPC
[14] = K. pneumoniae CDC 135, ESBL/VIM
[15] = K. pneumoniae CDC 138, ESBL/NDM
[16] = K. pneumoniae CDC 158, ESBL/NDM/OXA
[17] = P. aeruginosa isolate CDC 230, β-lactamase type VIM/OXA
[18] = P. aeruginosa isolate CDC 231, β-lactamase type KPC/OXA
[19] = P. aeruginosa isolate CDC 241, β-lactamase type IMP/OXA
[20] = P. aeruginosa isolate CDC 246, β-lactamase type NDM/OXA
[21] = P. aeruginosa isolate CDC 250, β-lactamase type NDM/OXA
[22] = P. aeruginosa isolate CDC 356, β-lactamase type KPC
[23] = P. aeruginosa isolate CDC 439, β-lactamase type IMP
[24] = P. aeruginosa isolate CDC 444, β-lactamase type VIM
[25] = P. aeruginosa isolate CDC 457, β-lactamase type VIM
[26] = P. aeruginosa isolate CDC 516, β-lactamase type KPC/AmpC
[27] = P. aeruginosa isolate CDC 518, β-lactamase type KPC/AmpC
[28] = A. baumannii isolate CDC 273, β-lactamase type ESBL/OXA
[29] = A. baumannii isolate CDC 274, β-lactamase type ESBL/OXA
[30] = A. baumannii isolate CDC 275, β-lactamase type ESBL/OXA
[31] = A. baumannii isolate CDC 277, β-lactamase type ESBL/OXA
[32] = A. baumannii isolate CDC 284, β-lactamase type ESBL/OXA
[33] = A. baumannii isolate CDC 307, β-lactamase type OXA
[34] = A. baumannii isolate CDC 308, β-lactamase type ESBL/OXA
[35] = A. baumannii isolate CDC 311, β-lactamase type OXA
[36] = A. baumannii isolate CDC 312, β-lactamase type OXA
[37] = A. baumannii isolate CDC 313, β-lactamase type ESBL/OXA
[38] = NCTC13304, A. baumannii isolate NCTC 13304, β-lactamase type OXA
[39] = Escherichia coli, ATCC25922, E. coli ATCC 25922
[40] = Escherichia coli, ATCC35218, E. coli ATCC 35218
[41] = Klebsiella pneumoniae, ATCCBAA1705, K. pneumoniae ATCC BAA-1705
[42] = Pseudomonas aeruginosa, ATCC27853, P. aeruginosa ATCC 27853

## C[C@H]1COc2c(N3CCN(C)CC3)c(F)cc3c(=O)c(C(=O)O)cn1c23 [Levofloxacin]
[1]; [6]
  MIC: ≤ 0.008 µg/mL
[1]; [7]
  MIC: > 8 µg/mL
[1]; E. coli CDC 114, ESBL/KPC
  MIC: 4 µg/mL (≈ 11.1 µM)
[1]; E. coli CDC 118, ESBL/NDM
  MIC: 8 µg/mL (≈ 22.1 µM)
[1]; E. coli CDC 435, NDM
  MIC: > 8 µg/mL
[1]; E. coli CDC 451, KPC
  MIC: > 8 µg/mL
[1]; E. coli CDC 503, ESBL/NDM
  MIC: > 8 µg/mL
[1]; E. coli MMX 5745, KPC
  MIC: 8 µg/mL (≈ 22.1 µM)
[1]; E. coli MMX 5755, ESBL
  MIC: 8 µg/mL (≈ 22.1 µM)
[1]; E. coli MMX 5756, ESBL
  MIC: 4 µg/mL (≈ 11.1 µM)
[1]; E. coli MMX 5758, ESBL
  MIC: 8 µg/mL (≈ 22.1 µM)
[2]; [8]
  MIC: > 8 µg/mL
[2]; K. pneumoniae CDC 112, KPC
  MIC: 4 µg/mL (≈ 11.1 µM)
[2]; [9]
  MIC: 4 µg/mL (≈ 11.1 µM)
[2]; [10]
  MIC: > 8 µg/mL
[2]; [11]
  MIC: > 8 µg/mL
[2]; [12]
  MIC: 0.015 µg/mL (≈ 0.0415 µM)
[2]; [13]
  MIC: > 8 µg/mL
[2]; [14]
  MIC: > 8 µg/mL
[2]; [15]
  MIC: > 8 µg/mL
[2]; [16]
  MIC: 4 µg/mL (≈ 11.1 µM)
[2]; K. pneumoniae MMX 9029, ESBL
  MIC: 0.12 µg/mL (≈ 0.332 µM)
[3]; [17]
  MIC: 8 µg/mL (≈ 22.1 µM)
[3]; [18]
  MIC: > 8 µg/mL
[3]; [19]
  MIC: 8 µg/mL (≈ 22.1 µM)
[3]; [20]
  MIC: > 8 µg/mL
[3]; [21]
  MIC: > 8 µg/mL
[3]; [22]
  MIC: 0.12 µg/mL (≈ 0.332 µM)
[3]; [23]
  MIC: 8 µg/mL (≈ 22.1 µM)
[3]; [24]
  MIC: 8 µg/mL (≈ 22.1 µM)
[3]; [25]
  MIC: > 8 µg/mL
[3]; [26]
  MIC: 0.25 µg/mL (≈ 0.692 µM)
[3]; [27]
  MIC: > 8 µg/mL
[4]; [28]
  MIC: > 8 µg/mL
[4]; [29]
  MIC: 8 µg/mL
[4]; [30]
  MIC: 4 µg/mL
[4]; [31]
  MIC: 8 µg/mL
[4]; [32]
  MIC: 8 µg/mL
[4]; [33]
  MIC: 8 µg/mL
[4]; [34]
  MIC: 4 µg/mL
[4]; [35]
  MIC: 2 µg/mL
[4]; [36]
  MIC: 2 µg/mL
[4]; [37]
  MIC: 2 µg/mL
[4]; [38]
  MIC: 1 µg/mL
[5]; [39]
  MIC: ≤ 0.008 µg/mL
[5]; [40]
  MIC: ≤ 0.008 µg/mL
[5]; [41]
  MIC: > 8 µg/mL
[5]; [42]
  MIC: 0.5 µg/mL
[5]; Staphylococcus aureus, ATCC29213, S. aureus ATCC 29213
  MIC: 0.06 µg/mL

## C[C@@H](O)[C@H]1C(=O)N2C(C(=O)O)=C(S[C@@H]3CN[C@H](C(=O)N(C)C)C3)[C@H](C)[C@H]12 [Meropenem]
[1]; [6]
  MIC: ≤ 0.008 µg/mL
[1]; [7]
  MIC: > 8 µg/mL
[1]; E. coli CDC 114, ESBL/KPC
  MIC: 2 µg/mL (≈ 5.22 µM)
[1]; E. coli CDC 118, ESBL/NDM
  MIC: 0.06 µg/mL (≈ 0.156 µM)
[1]; E. coli CDC 435, NDM
  MIC: > 8 µg/mL
[1]; E. coli CDC 451, KPC
  MIC: 1 µg/mL (≈ 2.61 µM)
[1]; E. coli CDC 503, ESBL/NDM
  MIC: 8 µg/mL (≈ 20.9 µM)
[1]; E. coli MMX 5745, KPC
  MIC: 2 µg/mL (≈ 5.22 µM)
[1]; E. coli MMX 5755, ESBL
  MIC: 0.015 µg/mL (≈ 0.0391 µM)
[1]; E. coli MMX 5756, ESBL
  MIC: ≤ 0.008 µg/mL
[1]; E. coli MMX 5758, ESBL
  MIC: ≤ 0.008 µg/mL
[2]; [8]
  MIC: 8 µg/mL (≈ 20.9 µM)
[2]; K. pneumoniae CDC 112, KPC
  MIC: > 8 µg/mL
[2]; [9]
  MIC: > 8 µg/mL
[2]; [10]
  MIC: > 8 µg/mL
[2]; [11]
  MIC: > 8 µg/mL
[2]; [12]
  MIC: 4 µg/mL (≈ 10.4 µM)
[2]; [13]
  MIC: 8 µg/mL (≈ 20.9 µM)
[2]; [14]
  MIC: 1 µg/mL (≈ 2.61 µM)
[2]; [15]
  MIC: > 8 µg/mL
[2]; [16]
  MIC: > 8 µg/mL
[2]; K. pneumoniae MMX 9029, ESBL
  MIC: 0.015 µg/mL (≈ 0.0391 µM)
[3]; [17]
  MIC: > 8 µg/mL
[3]; [18]
  MIC: > 8 µg/mL
[3]; [19]
  MIC: > 8 µg/mL
[3]; [20]
  MIC: > 8 µg/mL
[3]; [21]
  MIC: > 8 µg/mL
[3]; [22]
  MIC: > 8 µg/mL
[3]; [23]
  MIC: > 8 µg/mL
[3]; [24]
  MIC: > 8 µg/mL
[3]; [25]
  MIC: > 8 µg/mL
[3]; [26]
  MIC: > 8 µg/mL
[3]; [27]
  MIC: > 8 µg/mL
[4]; [28]
  MIC: > 8 µg/mL
[4]; [29]
  MIC: > 8 µg/mL
[4]; [30]
  MIC: > 8 µg/mL
[4]; [31]
  MIC: > 8 µg/mL
[4]; [32]
  MIC: > 8 µg/mL
[4]; [33]
  MIC: 8 µg/mL
[4]; [34]
  MIC: 8 µg/mL
[4]; [35]
  MIC: > 8 µg/mL
[4]; [36]
  MIC: 4 µg/mL
[4]; [37]
  MIC: > 8 µg/mL
[4]; [38]
  MIC: > 8 µg/mL
[5]; [39]
  MIC: ≤ 0.008 µg/mL
[5]; [40]
  MIC: ≤ 0.008 µg/mL
[5]; [41]
  MIC: 8 µg/mL
[5]; [42]
  MIC: 0.25 µg/mL
